# In US12291532B2, “Substituted xanthines as modulators of TRPC5 activity” (Boehringer Ingelheim International GmbH, priority 2018, dated 2025):
# Target: T1, TRPC5 (Homo sapiens, UniProt Q9UL62)
# T1 construct: expressed in transfected cells; host or cells: HEK293 TREx (inducible expression, induced 20-48 hours)
# T1 sequence (Q9UL62 1-973): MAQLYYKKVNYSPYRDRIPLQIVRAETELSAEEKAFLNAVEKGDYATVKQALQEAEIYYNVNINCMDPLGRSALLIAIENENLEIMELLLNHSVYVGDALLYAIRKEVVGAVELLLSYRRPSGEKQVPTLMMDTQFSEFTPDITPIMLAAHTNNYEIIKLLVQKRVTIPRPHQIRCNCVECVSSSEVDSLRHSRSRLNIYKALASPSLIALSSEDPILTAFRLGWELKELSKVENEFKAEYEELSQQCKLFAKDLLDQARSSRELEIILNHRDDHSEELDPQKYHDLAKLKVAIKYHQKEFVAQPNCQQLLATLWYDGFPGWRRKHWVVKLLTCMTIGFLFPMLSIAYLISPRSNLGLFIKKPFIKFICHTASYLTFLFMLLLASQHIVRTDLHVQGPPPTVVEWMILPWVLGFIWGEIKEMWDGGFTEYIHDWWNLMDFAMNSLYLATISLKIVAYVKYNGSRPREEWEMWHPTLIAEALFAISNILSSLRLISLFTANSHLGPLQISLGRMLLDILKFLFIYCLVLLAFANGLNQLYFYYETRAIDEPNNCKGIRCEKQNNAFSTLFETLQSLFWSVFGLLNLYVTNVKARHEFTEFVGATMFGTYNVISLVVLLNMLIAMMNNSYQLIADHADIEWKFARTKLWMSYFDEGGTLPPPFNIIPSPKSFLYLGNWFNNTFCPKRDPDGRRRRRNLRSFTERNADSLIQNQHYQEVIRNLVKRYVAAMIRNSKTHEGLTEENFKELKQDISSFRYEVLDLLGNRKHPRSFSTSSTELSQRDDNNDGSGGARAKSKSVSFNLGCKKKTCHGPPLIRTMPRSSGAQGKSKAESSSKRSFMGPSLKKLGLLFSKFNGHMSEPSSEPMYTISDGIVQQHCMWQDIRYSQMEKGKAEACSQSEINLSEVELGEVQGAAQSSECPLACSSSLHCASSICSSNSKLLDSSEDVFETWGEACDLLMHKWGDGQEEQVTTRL
# Test: Assay A: Determination of TRPC5-Inhibition (whole-cell patch clamp)
# Format: cell-based
# Details: compounds of the present invention, TRPC5-expressing HEK293 TREx cells, current activated by LaCl3
# Description: Assay A: Determination of TRPC5-Inhibition
# Patch clamp experiments permit the detection of currents through the TRPC5 channel in a cell line. In normal whole-cell patch clamp recordings, a glass electrode is brought into contact with a single cell and a high-resistance (gigaohm) seal is established with the cell membrane. The membrane is then ruptured to achieve the whole-cell configuration, permitting control of the voltage of the cell membrane and measurement of currents flowing across the membrane using the amplifier attached to the electrode and resulting in the replacement of cytoplasm with the pipette solution. A perfusion system permits control of the extracellular solution, including the addition of blockers and activators of the current. The current can be activated by including 1.4 μM free Ca2+ in the pipette (intracellular) solution, and 80 μM LaCl3 in the extracellular solution.
# TRPC5 cells were induced 20-48 hours, removed from growth plates, and replated at low density (to attain good single-cell physical separation) on glass coverslips for measurement. In some cases, cells were grown in low density overnight on glass coverslips. Patch clamp recordings were made in the whole-cell mode with a holding potential of −40 mV. Every 5 seconds, a voltage ramp was applied from −120 to +100 mV, 400 ms in duration. Currents elicited were quantified at −80 mV and +80 mV. The internal solution consisted of 140 mM cesium aspartate, 10 mM HEDTA, 2 mM CaCl2, 2.27 mM MgCl2 and 10 mM HEPES, pH 7.2, with 1,400 nM calculated free Ca2+. The external solution consisted of 150 mM NaCl, 4.5 mM 15 KCl, 1 mM MgCl2, 2 mM CaCl2, 10 mM HEPES, 10 mM glucose, 1 mM EGTA, pH 7.4. Upon addition of LaCl3, TRPC5 current was induced only in TRPC5-expressing cells and not in parental HEK293 TREx cells. Removal of the LaCh stimulus causes most of the current to go away. Potential blockers were tested for ability to block both inward and outward currents in the continued presence of LaCl3.
# IC50 of a compound of the invention was estimated by testing the compound 500 nM. […] Compounds blocking 50% or more at 500 nM are retested at multiple concentrations, and the % block is fitted by standard equations to determine […] accurately, using a […] concentration-response experiment.
row,Structure (SMILES),IC50 [nM]
1,CCn1c(=O)n(CCCO)c(=O)c2c1nc(-c1ncc(OC3CCC3C)nc1C)n2Cc1ccc(Cl)cc1 (stereo not drawn) [Example 1],0.172
2,Cc1nc(OC2CCC2)cnc1-c1nc2c(c(=O)n(CCCO)c(=O)n2C(C)C)n1Cc1ccccc1 [Example 2],0.207
3,CCn1c(=O)n(CCCO)c(=O)c2c1nc(-c1cnc(OC3CCC3)cn1)n2Cc1ccc(F)cc1 [Example 3],0.506

# Next, values leading:
row,IC50 [nM],Structure (SMILES)
1,1.11,CCn1c(=O)n(CCCO)c(=O)c2c1nc(-c1cnc(OC3CCC3)cn1)n2Cc1ccccc1 [Example 4]
2,0.29,CCn1c(=O)n(CCCO)c(=O)c2c1nc(-c1ncc(OC3CCC3C)nc1C)n2Cc1ccc(F)cc1 (stereo not drawn) [Example 5]
3,1.22,CCn1c(=O)n(CCCO)c(=O)c2c1nc(-c1ncc(OC3CCC3)nc1C)n2Cc1ccccc1 [Example 6]
